Activity calls are given as the source filed them. The calls are words filed in the database; no cut-off is given here.
Experiments:
[1] = biological target: T1, Renin (Homo sapiens, UniProt P00797); assay: Inhibition of renin (unknown origin)
T1 sequence (P00797 whole entry): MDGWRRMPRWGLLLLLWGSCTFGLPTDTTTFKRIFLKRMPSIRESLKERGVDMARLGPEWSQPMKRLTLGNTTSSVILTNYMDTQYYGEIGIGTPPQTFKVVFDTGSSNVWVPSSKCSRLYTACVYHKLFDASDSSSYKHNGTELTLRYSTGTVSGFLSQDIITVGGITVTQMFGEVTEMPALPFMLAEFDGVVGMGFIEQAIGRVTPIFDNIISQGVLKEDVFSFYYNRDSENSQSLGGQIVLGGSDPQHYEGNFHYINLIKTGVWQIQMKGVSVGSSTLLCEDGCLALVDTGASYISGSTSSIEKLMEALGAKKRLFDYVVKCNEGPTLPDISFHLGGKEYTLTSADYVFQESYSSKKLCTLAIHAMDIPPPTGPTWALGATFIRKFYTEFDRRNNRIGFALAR

[2] = biological target: hERG (KCNH2) (Homo sapiens, UniProt Q12809); assay: Inhibition of human ERG at 10 uM
[3] = biological target: Cathepsin D (Homo sapiens, UniProt P07339); assay: Inhibition of CathD (unknown origin)
[4] = AUC (0 to 6 hrs) in rat at 10 mg/kg, po; format: ADME, organism-based; set-up: time < 6 hr, dose 10 mg/kg, route oral; conditions: plasma
[5] = biological target: Beta-secretase 1 (Homo sapiens, UniProt P56817); assay: Inhibition of BACE1 (unknown origin)
[6] = Inhibition of pepsin (unknown origin); set-up: species or system Homo sapiens
[7] = tested on: Rattus norvegicus; assay: Antihypertensive activity in rat/human renin double transgenic rat model assessed as maximum reduction in mean arterial pressure at 10 mg/kg, po; format: functional, Artery
[8] = Protein binding in rat plasma; format: ADME, cell-free; conditions: read-out: PPB (converted)
[9] = AUC in dog at 3 mg/kg, po; format: ADME, organism-based, Canis lupus familiaris; set-up: dose 3 mg/kg, route oral; conditions: plasma
[10] = tested on: Rattus norvegicus; assay: Antihypertensive activity in rat/human renin double transgenic rat model assessed as reduction in mean arterial pressure at 10 mg/kg, po after 17 hrs; format: functional, organism-based; set-up: dose 10 mg/kg; conditions: Artery
[11] = biological target: D(1A) dopamine receptor (Homo sapiens) (UniProt P21728); assay: Inhibition of human D1 receptor at 10 uM
[12] = biological target: Voltage-gated inwardly rectifying potassium channel KCNH2 (Homo sapiens, UniProt Q12809); assay: Inhibition of human ERG by voltage clamp method
[13] = Fraction unbound in rat plasma; format: ADME, cell-free
[14] = species: Homo sapiens; assay: Clearance in human assessed per million cells; format: ADME, cell-based
[15] = AUC in cynomolgus monkey at 3 mg/kg, po; format: ADME, organism-based, Macaca fascicularis; set-up: dose 3 mg/kg, route oral; conditions: plasma
[16] = biological target: Sodium-dependent dopamine transporter (Homo sapiens) (UniProt Q01959); assay: Inhibition of human dopamine transporter at 10 uM
[17] = Oral bioavailability in cynomolgus monkey at 3 mg/kg; format: ADME, organism-based, Macaca fascicularis; conditions: in vivo
[18] = species: Homo sapiens; assay: Inhibition of Na+ channel site 2 (unknown origin) at 10 uM
[19] = biological target: T2, Cathepsin E (Homo sapiens, UniProt P14091); assay: Inhibition of CathE (unknown origin)
T2 sequence (P14091 whole entry): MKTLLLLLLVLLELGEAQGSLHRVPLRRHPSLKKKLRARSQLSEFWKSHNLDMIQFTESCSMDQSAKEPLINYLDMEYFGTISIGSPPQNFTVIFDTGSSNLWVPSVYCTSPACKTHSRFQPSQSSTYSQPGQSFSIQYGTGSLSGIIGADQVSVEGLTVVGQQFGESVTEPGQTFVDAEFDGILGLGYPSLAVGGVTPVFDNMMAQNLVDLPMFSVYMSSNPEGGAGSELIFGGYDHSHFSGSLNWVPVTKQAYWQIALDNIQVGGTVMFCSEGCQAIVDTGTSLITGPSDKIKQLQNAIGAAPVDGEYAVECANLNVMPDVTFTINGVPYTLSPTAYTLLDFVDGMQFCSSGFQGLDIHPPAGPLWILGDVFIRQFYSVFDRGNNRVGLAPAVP

[20] = Protein binding in human plasma; format: ADME, cell-free; conditions: read-out: PPB (converted)
[21] = biological target: T3, Beta-secretase 2 (Homo sapiens, UniProt Q9Y5Z0); assay: Inhibition of BACE2 (unknown origin)
T3 sequence (Q9Y5Z0 whole entry): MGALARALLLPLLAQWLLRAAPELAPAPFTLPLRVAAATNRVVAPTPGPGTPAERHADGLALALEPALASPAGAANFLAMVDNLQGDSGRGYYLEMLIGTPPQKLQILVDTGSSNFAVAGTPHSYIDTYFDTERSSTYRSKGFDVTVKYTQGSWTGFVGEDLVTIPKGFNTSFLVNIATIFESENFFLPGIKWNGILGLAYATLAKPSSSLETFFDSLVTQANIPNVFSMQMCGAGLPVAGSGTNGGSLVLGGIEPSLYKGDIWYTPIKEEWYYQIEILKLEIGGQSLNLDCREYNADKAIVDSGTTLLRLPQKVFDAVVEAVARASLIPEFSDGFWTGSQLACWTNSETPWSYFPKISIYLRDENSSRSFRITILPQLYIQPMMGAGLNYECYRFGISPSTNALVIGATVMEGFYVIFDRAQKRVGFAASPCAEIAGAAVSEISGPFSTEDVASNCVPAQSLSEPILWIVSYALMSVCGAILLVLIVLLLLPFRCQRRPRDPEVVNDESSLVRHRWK

[22] = biological target: T4, Nuclear receptor subfamily 1 group I member 2 (Homo sapiens, UniProt O75469); assay: Inhibition of PXR (unknown origin); format: ADME
T4 sequence (O75469 whole entry): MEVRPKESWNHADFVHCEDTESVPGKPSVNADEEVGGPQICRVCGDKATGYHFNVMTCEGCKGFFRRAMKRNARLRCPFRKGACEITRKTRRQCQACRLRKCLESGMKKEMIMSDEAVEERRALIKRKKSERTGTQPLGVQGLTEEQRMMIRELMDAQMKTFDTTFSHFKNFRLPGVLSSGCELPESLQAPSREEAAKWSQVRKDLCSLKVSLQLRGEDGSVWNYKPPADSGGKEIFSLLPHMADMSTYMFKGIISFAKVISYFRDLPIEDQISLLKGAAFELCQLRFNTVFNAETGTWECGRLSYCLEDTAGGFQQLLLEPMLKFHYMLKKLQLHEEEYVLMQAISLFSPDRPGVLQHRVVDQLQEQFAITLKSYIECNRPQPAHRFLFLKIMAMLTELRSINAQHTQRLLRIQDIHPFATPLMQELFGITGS

[23] = tested on: Rattus norvegicus; assay: Antihypertensive activity in rat/human renin double transgenic rat model assessed as reduction in mean arterial pressure at 10 mg/kg, po after 20 hrs; format: functional, organism-based; set-up: dose 10 mg/kg; conditions: Artery
[24] = Inhibition of CYP (unknown origin); format: ADME; conditions: human
[25] = Oral bioavailability in dog at 3 mg/kg; format: ADME, organism-based, Canis lupus familiaris; conditions: in vivo
[26] = Permeability across human Caco2 cells; format: ADME, cell-based; conditions: Caco-2, read-out: permeability
[27] = clinical; conditions: human, in vivo, po

Chain of hERG (KCNH2) (Q12809 whole entry): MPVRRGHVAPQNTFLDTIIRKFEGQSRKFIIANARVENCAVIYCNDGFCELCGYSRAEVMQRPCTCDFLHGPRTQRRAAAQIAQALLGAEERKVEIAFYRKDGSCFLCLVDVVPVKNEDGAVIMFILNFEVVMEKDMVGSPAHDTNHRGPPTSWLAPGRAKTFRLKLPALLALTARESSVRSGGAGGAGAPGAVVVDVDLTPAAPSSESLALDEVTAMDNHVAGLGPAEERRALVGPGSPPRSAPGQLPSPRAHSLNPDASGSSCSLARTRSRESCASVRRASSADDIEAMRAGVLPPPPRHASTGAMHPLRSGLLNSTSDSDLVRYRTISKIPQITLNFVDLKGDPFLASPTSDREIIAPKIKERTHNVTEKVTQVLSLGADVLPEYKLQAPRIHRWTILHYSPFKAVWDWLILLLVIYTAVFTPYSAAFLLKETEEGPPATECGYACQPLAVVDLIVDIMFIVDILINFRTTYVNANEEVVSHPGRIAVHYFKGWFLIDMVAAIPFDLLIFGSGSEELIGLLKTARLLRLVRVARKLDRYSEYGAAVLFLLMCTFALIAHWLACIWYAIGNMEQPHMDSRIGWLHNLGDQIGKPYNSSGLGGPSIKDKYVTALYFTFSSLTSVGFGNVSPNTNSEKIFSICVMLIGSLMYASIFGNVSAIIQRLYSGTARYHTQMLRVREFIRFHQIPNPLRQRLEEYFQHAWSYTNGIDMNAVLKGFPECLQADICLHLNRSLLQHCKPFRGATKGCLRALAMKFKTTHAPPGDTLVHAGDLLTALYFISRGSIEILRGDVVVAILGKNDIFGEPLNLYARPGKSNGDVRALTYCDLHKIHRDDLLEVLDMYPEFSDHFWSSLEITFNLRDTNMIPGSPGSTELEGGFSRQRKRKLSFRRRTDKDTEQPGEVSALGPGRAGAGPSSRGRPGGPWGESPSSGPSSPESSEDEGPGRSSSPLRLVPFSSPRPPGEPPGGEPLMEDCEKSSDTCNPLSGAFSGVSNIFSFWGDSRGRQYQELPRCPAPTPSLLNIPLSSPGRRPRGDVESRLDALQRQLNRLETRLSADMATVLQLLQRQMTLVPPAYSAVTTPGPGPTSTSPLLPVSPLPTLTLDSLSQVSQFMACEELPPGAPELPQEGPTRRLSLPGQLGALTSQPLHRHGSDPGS
Chain of Cathepsin D (P07339 65-162 limits assumed): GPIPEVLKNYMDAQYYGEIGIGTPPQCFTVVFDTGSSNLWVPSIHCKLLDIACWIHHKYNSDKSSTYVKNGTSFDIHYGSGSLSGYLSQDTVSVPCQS
Chain of Cathepsin D (P07339 169-412 limits assumed): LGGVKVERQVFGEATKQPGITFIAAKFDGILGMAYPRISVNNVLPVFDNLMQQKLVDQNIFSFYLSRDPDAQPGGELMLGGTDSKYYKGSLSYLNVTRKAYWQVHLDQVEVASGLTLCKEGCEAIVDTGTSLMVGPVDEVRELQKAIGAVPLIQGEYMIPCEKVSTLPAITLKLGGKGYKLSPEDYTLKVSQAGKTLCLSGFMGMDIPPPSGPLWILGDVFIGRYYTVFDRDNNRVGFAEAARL
Chain of Beta-secretase 1 (P56817 whole entry): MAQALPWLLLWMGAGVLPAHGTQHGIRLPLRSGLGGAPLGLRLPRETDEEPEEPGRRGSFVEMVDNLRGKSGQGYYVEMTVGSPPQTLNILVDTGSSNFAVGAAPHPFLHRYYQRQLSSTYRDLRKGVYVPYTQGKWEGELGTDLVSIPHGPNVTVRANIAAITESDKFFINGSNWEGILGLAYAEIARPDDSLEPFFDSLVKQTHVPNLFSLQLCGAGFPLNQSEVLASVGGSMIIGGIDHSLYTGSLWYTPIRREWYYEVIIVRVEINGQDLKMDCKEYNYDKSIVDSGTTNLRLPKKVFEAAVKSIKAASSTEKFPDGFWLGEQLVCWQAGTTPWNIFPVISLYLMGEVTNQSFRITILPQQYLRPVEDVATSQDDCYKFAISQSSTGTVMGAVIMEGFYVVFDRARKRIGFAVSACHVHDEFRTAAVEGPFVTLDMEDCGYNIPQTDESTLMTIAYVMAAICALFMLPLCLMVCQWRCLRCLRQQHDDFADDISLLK
Chain of D(1A) dopamine receptor (Homo sapiens) (P21728 whole entry): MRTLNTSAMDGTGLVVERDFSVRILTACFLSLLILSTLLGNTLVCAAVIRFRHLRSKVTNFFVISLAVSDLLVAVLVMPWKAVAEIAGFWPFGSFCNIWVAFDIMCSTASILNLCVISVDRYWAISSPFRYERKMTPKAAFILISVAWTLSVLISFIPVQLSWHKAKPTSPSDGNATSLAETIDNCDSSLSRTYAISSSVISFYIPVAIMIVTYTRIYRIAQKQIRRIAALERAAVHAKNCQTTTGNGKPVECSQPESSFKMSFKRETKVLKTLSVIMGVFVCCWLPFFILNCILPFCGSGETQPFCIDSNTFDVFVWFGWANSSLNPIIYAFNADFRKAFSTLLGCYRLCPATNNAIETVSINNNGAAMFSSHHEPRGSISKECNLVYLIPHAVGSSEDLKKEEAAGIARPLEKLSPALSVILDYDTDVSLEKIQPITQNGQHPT
Chain of Sodium-dependent dopamine transporter (Homo sapiens) (Q01959 whole entry): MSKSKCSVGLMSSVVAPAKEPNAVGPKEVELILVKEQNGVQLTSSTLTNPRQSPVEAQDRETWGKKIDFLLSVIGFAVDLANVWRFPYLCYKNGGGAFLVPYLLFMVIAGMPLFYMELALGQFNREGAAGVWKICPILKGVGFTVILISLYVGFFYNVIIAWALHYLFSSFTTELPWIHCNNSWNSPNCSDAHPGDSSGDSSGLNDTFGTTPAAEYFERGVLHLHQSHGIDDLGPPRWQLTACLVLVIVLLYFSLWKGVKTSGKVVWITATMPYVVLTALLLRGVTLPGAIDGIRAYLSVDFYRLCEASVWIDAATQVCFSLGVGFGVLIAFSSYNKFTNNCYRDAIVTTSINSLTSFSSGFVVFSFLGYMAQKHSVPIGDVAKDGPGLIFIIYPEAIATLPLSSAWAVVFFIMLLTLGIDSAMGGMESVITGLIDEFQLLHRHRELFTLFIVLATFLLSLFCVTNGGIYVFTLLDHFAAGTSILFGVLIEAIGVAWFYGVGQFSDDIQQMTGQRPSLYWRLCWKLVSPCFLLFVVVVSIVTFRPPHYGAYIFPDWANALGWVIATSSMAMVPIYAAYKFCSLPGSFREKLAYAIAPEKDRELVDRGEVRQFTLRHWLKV
Chain of Voltage-gated inwardly rectifying potassium channel KCNH2 (Q12809 whole entry): as the sequence (Q12809 whole entry) above

CC(C)[C@]1(C)CC(=O)N(Cc2cccc(N3CC(c4cccc(Cl)c4)CC3=O)c2)C(=N)N1 (stereo partly drawn)
Ki [1]: 2 nM
inhibition at 10 µM [2]: 92%

C[C@@]1(c2ccc3sccc3c2)CC(=O)N(Cc2cccc(C(=O)NCc3ccccc3)c2)C(=N)N1
Ki [3]: 19500 nM
Ki [1]: 82 nM
AUC(0-t) at 6 h [4]: 0.049 µM·h
Ki [5]: 3820 nM

CC(C)[C@]1(C)CC(=O)N(Cc2cc(F)cc(C(=O)N[C@@H](C)c3ccccc3)c2)C(=N)N1
Ki [6]: > 10000 nM
Activity [7]: 66 mmHg
fraction unbound [8]: 0.059
Ki [3]: 180 nM
Ki [1]: 0.6 nM
AUC [9]: 3 µM·h
Activity [10]: Active
AUC(0-t) at 6 h [4]: 6.52 µM·h
inhibition [11]: 64%
IC50 [12]: 9000 nM
fraction unbound [13]: 0.059
Ki [5]: > 10000 nM
CL [14]: 4 µL/min
AUC [15]: 1 µM·h
inhibition [16]: 51%
bioavailability [17]: 9%
inhibition [18]: 79%
Ki [19]: 1100 nM
fraction unbound [20]: 0.058
Ki [21]: 480 nM
INH [22]: > 30 µM
Activity [23]: Active
INH [24]: > 30 µM
bioavailability [25]: 38%

CC(C)[C@]1(C)CC(=O)N(Cc2cccc(N3C[C@@H](c4ccccc4)CC3=O)c2)C(=N)N1
Ki [1]: 44 nM
AUC(0-t) at 6 h [4]: 2.04 µM·h
Papp [26]: 4.2 ×10⁻⁶ cm/s

CC(C)[C@]1(C)CC(=O)N(Cc2cccc(C(=O)N[C@@H](C)c3ccccc3)c2)C(=N)N1
Ki [1]: 2.2 nM
AUC(0-t) at 6 h [4]: 0.405 µM·h

CC(C)[C@]1(C)CC(=O)N(Cc2cc(F)cc(N3C[C@@H](c4ccccc4)CC3=O)c2)C(=N)N1
Ki [1]: 19 nM
AUC(0-t) at 6 h [4]: 2.25 µM·h
inhibition at 10 µM [2]: 85%
CL [14]: 7.6 µL/min
Papp [26]: 6.7 ×10⁻⁶ cm/s

CC(C)[C@]1(C)CC(=O)N(Cc2ccnc(N3C[C@@H](c4ccccc4)CC3=O)c2)C(=N)N1
Ki [1]: 6 nM
AUC(0-t) at 6 h [4]: 2.44 µM·h
inhibition at 10 µM [2]: 77%

CC(C)[C@]1(C)CC(=O)N(Cc2cccc(N3C[C@H](c4ccccc4)CC3=O)c2)C(=N)N1
Ki [1]: 420 nM

CN[C@H](CNC(=O)N1CCC[C@@H]([C@@H](OCCNC(=O)OC)c2cccc(Cl)c2)C1)C[C@H]1CCCOC1 [VTP-27999]
IC50 [1]: 0.5 nM

CC(C)[C@]1(C)CC(=O)N(Cc2ccnc(N3CC[C@H](c4ccccc4)C3)c2)C(=N)N1
Ki [1]: 15 nM
AUC(0-t) at 6 h [4]: 0.595 µM·h
inhibition at 10 µM [2]: 72%

COCCCOc1cc(C[C@@H](C[C@H](N)[C@@H](O)C[C@H](C(=O)NCC(C)(C)C(N)=O)C(C)C)C(C)C)ccc1OC
Activity [7]: 43 mmHg
bioavailability [27]: 2.5%

CC(C)[C@]1(C)CC(=O)N(Cc2cccc(C(=O)N[C@H](C)c3ccccc3)c2)C(=N)N1
Ki [1]: 86 nM
AUC(0-t) at 6 h [4]: 0.173 µM·h

CC(C)[C@]1(C)CC(=O)N(Cc2cccc(C(=O)NCc3ccccc3)c2)C(=N)N1
Ki [3]: 2700 nM
Ki [1]: 56 nM
AUC(0-t) at 6 h [4]: 0.031 µM·h
Ki [5]: > 10000 nM
CL [14]: 3.7 µL/min
Papp [26]: 0.09 ×10⁻⁶ cm/s
